Experimental data taken from patent US9403830B2, “Inhibitors of leukotriene production” (Boehringer Ingelheim International GmbH, priority 2012, dated 2016).

Experiments:
human LTA4 hydrolase = biological target: T1, human LTA4 hydrolase (Homo sapiens, UniProt P09960); experiment: LTA4H Enzyme assay (peptidase, Arg-AMC cleavage); assay type: biochemical; conditions: LTA4H enzyme 1 nM, Arg-AMC substrate 50 μM, room temperature 1 h, fluorescence 380/460 nm
T1 sequence (P09960 1-611): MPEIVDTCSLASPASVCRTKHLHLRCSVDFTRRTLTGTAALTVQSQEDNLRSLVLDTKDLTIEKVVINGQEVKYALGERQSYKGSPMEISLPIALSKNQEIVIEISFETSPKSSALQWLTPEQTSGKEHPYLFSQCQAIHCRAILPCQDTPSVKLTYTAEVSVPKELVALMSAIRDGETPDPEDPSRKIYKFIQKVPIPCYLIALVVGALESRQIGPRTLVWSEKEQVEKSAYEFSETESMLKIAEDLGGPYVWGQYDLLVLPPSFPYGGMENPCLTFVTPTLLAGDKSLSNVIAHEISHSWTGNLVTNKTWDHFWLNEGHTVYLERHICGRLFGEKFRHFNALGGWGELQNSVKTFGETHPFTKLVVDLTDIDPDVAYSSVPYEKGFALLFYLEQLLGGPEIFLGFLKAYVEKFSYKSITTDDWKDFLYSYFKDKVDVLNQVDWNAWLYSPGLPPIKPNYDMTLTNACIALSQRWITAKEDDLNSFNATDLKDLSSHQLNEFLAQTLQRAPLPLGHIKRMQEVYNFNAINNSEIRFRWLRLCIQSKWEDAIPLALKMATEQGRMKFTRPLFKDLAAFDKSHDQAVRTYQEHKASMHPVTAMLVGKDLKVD
Summary of the method: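 Human LTA4H (1 nM final) incubated with compound and Arg-AMC (50 μM final) in 50 mM Tris-HCl pH 7.5, 100 mM KCl, 0.5% BSA, 1 h at room temperature. Product read as AMC fluorescence (ex 380/em 460 nm); IC50 reported.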

[1] = tested on: LTB4 synthesis in human whole blood; experiment: human whole blood (HWB) assay, inhibition of LTB4 production; assay type: cell-based; conditions: heparinized human whole blood, calcimycin 20 μM stimulation, plasma LTB4
Summary of the method: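 Heparinized human whole blood preincubated with compound 15 min at 37 °C, then stimulated with 20 μM (final) calcimycin for 30 min at 37 °C. Plasma LTB4 measured by antibody-based HTRF; IC50 reported.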

Row | IC50 (human LTA4 hydrolase) | IC50 [1] | Structure (SMILES)
1 | 0.065 nM | 120 nM | c1cc(-c2ccc(Oc3ccc4[nH]c(CN5CCCCCC5)nc4c3)cc2)[nH]n1 [Example 163, 2-Azepan-1-ylmethyl-5-[4-(2H-pyrazol-3-yl)-phenoxy]-1H-benzoimidazole]
2 | 0.14 nM | 120 nM | CN(Cc1nc2cc(Oc3ccc(-c4ccn[nH]4)cc3)ccc2[nH]1)C1CCCC1 [Example 164, Cyclopentyl-methyl-{5-[4-(2H-pyrazol-3-yl)-phenoxy]-1H-benzoimidazol-2-ylmethyl}-amine]
3 | 0.075 nM | 120 nM | C[C@@H]1CCCCN1Cc1nc2cc(Oc3ccc(-c4ccn[nH]4)cc3)ccc2[nH]1 [Example 165, 2-((R)-2-Methyl-piperidin-1-ylmethyl)-5-[4-(2H-pyrazol-3-yl)-phenoxy]-1H-benzoimidazole]
4 | 0.21 nM | 120 nM | COCC1CCN(Cc2nc3cc(Oc4ccc(-c5ccn[nH]5)cc4)ccc3[nH]2)C1 (stereo not drawn) [Example 166, 2-(3-Methoxymethyl-pyrrolidin-1-ylmethyl)-5-[4-(2H-pyrazol-3-yl)-phenoxy]-1H-benzoimidazole]
5 | 0.14 nM | 120 nM | COC[C@H]1CCCN1Cc1nc2cc(Oc3ccc(-c4ccn[nH]4)cc3)ccc2[nH]1 [Example 167, 2-((R)-2-Methoxymethyl-pyrrolidin-1-ylmethyl)-5-[4-(2H-pyrazol-3-yl)-phenoxy]-1H-benzoimidazole]
6 | 0.13 nM | 120 nM | COCC1CCCCN1Cc1nc2cc(Oc3ccc(-c4ccn[nH]4)cc3)ccc2[nH]1 (stereo not drawn) [Example 168, 2-(2-Methoxymethyl-piperidin-1-ylmethyl)-5-[4-(2H-pyrazol-3-yl)-phenoxy]-1H-benzoimidazole]
7 | 0.25 nM | 120 nM | CN(C)C(=O)CC1CCN(CC2Cc3ccc(Oc4ccc(-c5ccn[nH]5)cc4)cc3O2)CC1 (stereo not drawn) [Example 169, N,N-Dimethyl-2-(1-{6-[4-(2H-pyrazol-3-yl)-phenoxy]-2,3-dihydro-benzofuran-2-ylmethyl}-piperidin-4-yl)-acetamide]
8 | 0.35 nM | 120 nM | COCC(=O)NC1CCN(CC2Cc3ccc(Oc4ccc(-c5ccn[nH]5)cc4)cc3O2)CC1 (stereo not drawn) [Example 170, 2-Methoxy-N-(1-{6-[4-(2H-pyrazol-3-yl)-phenoxy]-2,3-dihydro-benzofuran-2-ylmethyl}-piperidin-4-yl)-acetamide]
9 | 0.11 nM | 130 nM | C[C@H]1CCCCN1Cc1nc2cc(Oc3ccc(-c4ccn[nH]4)cc3)ccc2[nH]1 [Example 171, 2-((S)-2-Methyl-piperidin-1-ylmethyl)-5-[4-(2H-pyrazol-3-yl)-phenoxy]-1H-benzoimidazole]
10 | 0.07 nM | 130 nM | COC1CCCN(Cc2nc3cc(Oc4ccc(-c5ccn[nH]5)cc4)ccc3[nH]2)C1 (stereo not drawn) [Example 172, 2-(3-Methoxy-piperidin-1-ylmethyl)-5-[4-(2H-pyrazol-3-yl)-phenoxy]-1H-benzoimidazole]
11 | 0.16 nM | 130 nM | COC[C@@H]1CCCN1Cc1nc2cc(Oc3ccc(-c4ccn[nH]4)cc3)ccc2[nH]1 [Example 173, 2-((S)-2-Methoxymethyl-pyrrolidin-1-ylmethyl)-5-[4-(2H-pyrazol-3-yl)-phenoxy]-1H-benzoimidazole]
12 | 0.65 nM | 140 nM | CC1(O)CN(Cc2ccc3cc(Oc4ccc(-c5ccn[nH]5)cn4)ccc3n2)C1 [Example 174, 3-Methyl-1-{6-[5-(2H-pyrazol-3-yl)-pyridin-2-yloxy]-quinolin-2-ylmethyl}-azetidin-3-ol]
13 | 0.17 nM | 140 nM | c1cc(-c2ccc(Oc3ccc4[nH]c(CN5CCCOCC5)nc4c3)cc2)[nH]n1 [Example 175, 2-[1,4]Oxazepan-4-ylmethyl-5-[4-(2H-pyrazol-3-yl)-phenoxy]-1H-benzoimidazole]
14 | 0.32 nM | 140 nM | O=S1(=O)CCN(CCn2cc3cc(Oc4ccc(-c5ccn[nH]5)cc4)ccc3n2)CC1 [Example 176, 2-[2-(1,1-Dioxo-1-λ-6-thiomorpholin-4-yl)-ethyl]-5-[4-(2H-pyrazol-3-yl)-phenoxy]-2H-indazole]
15 | 0.74 nM | 150 nM | c1cc(-c2ccc(Oc3ccc4nc(CN5C[C@@H]6C[C@H]5CO6)ccc4c3)nc2)[nH]n1 [Example 178, 2-[(1S,4S)-1-(2-Oxa-5-aza-bicyclo[2.2.1]hept-5-yl)methyl]-6-[5-(2H-pyrazol-3-yl)-pyridin-2-yloxy]-quinoline]
16 | 0.2 nM | 150 nM | CN(Cc1nc2cc(Oc3ccc(-c4ccn[nH]4)cc3)ccc2[nH]1)C1CC1 [Example 179, Cyclopropyl-methyl-{5-[4-(2H-pyrazol-3-yl)-phenoxy]-1H-benzoimidazol-2-ylmethyl}-amine]
17 | 0.13 nM | 150 nM | CC[C@@H](C)NCc1nc2cc(Oc3ccc(-c4ccn[nH]4)cc3)ccc2[nH]1 [Example 180, ((R)-sec-Butyl)-{5-[4-(2H-pyrazol-3-yl)-phenoxy]-1H-benzoimidazol-2-ylmethyl}-amine]
18 | 0.21 nM | 150 nM | c1cc(-c2ccc(Oc3ccc4[nH]c(CNC5CCCOC5)nc4c3)cc2)[nH]n1 (stereo not drawn) [Example 181, {5-[4-(2H-Pyrazol-3-yl)-phenoxy]-1H-benzoimidazol-2-ylmethyl}-(tetrahydro-pyran-3-yl)-amine]
19 | 0.062 nM | 150 nM | CC1(C)COCCN1Cc1nc2cc(Oc3ccc(-c4ccn[nH]4)cc3)ccc2[nH]1 [Example 182, 2-(3,3-Dimethyl-moprholin-4-ylmethyl)-5-[4-(2H-pyrazol-3-yl)-phenoxy]-1H-benzoimidazole]
20 | 0.17 nM | 150 nM | COCCN(Cc1nc2cc(Oc3ccc(-c4ccn[nH]4)cc3)ccc2[nH]1)C(C)C [Example 183, Isopropyl-(2-methoxy-ethyl)-{5-[4-(2H-pyrazol-3-yl)-phenoxy]-1H-benzoimidazol-2-ylmethyl}-amine]
21 | 0.2 nM | 150 nM | CCCN(CCOC)Cc1nc2cc(Oc3ccc(-c4ccn[nH]4)cc3)ccc2[nH]1 [Example 184, (2-Methoxy-ethyl)-propyl-{5-[4-(2H-pyrazol-3-yl)-phenoxy]-1H-benzoimidazol-2-ylmethyl}-amine]
22 | 0.45 nM | 150 nM | c1cc(-c2ccc(Oc3ccc4c(c3)OC(CNCC3CCOCC3)C4)cc2)[nH]n1 (stereo not drawn) [Example 185, {6-[4-(2H-Pyrazol-3-yl)-phenoxy]-2,3-dihydro-benzofuran-2-ylmethyl}-(tetrahydro-pyran-4-ylmethyl)-amine]
23 | 0.23 nM | 150 nM | COCCN(CCOC)Cc1nc2cc(Oc3ccc(-c4ccn[nH]4)cc3)ccc2[nH]1 [Example 186, Bis-(2-methoxy-ethyl)-{5-[4-(2H-pyrazol-3-yl)-phenoxy]-1H-benzoimidazol-2-ylmethyl}-amine]
24 | 0.31 nM | 150 nM | O=C(C1CCN(CC2Cc3ccc(Oc4ccc(-c5ccn[nH]5)cc4)cc3O2)CC1)N1CCOCC1 (stereo not drawn) [Example 187, Morpholin-4-yl-(1-{6-[4-(2H-pyrazol-3-yl)-phenoxy]-2,3-dihydro-benzofuran-2-ylmethyl}-piperidin-4-yl)-methanone]
25 | 0.13 nM | 160 nM | c1cc(-c2ccc(Oc3ccc4[nH]c(CNC5CCCC5)nc4c3)cc2)[nH]n1 [Example 188, Cyclopentyl-{5-[4-(2H-pyrazol-3-yl)-phenoxy]-1H-benzoimidazol-2-ylmethyl}-amine]
26 | 0.23 nM | 160 nM | COC[C@H](C)NCc1nc2cc(Oc3ccc(-c4ccn[nH]4)cc3)ccc2[nH]1 [Example 189, ((S)-2-Methoxy-1-methyl-ethyl)-{5-[4-(2H-pyrazol-3-yl)-phenoxy]-1H-benzoimidazol-2-ylmethyl}-amine]
27 | 0.53 nM | 170 nM | O=C1OCCCN1C1CCN(Cc2ccc3cc(Oc4ccc(-c5ccn[nH]5)cn4)ccc3n2)CC1 [Example 190, 3-(1-{6-[5-(2H-Pyrazol-3-yl)-pyridin-2-yloxy]-quinolin-2-ylmethyl}-piperidin-4-yl)-[1,3]oxazinan-2-one]
28 | 0.18 nM | 170 nM | CCNCc1nc2cc(Oc3ccc(-c4ccn[nH]4)cc3)ccc2[nH]1 [Example 191, Ethyl-{5-[4-(2H-pyrazol-3-yl)-phenoxy]-1H-benzoimidazol-2-ylmethyl}-amine]
29 | 0.17 nM | 170 nM | CCN(CCO)Cc1nc2cc(Oc3ccc(-c4ccn[nH]4)cc3)ccc2[nH]1 [Example 192, 2-(Ethyl-{5-[4-(2H-pyrazol-3-yl)-phenoxy]-1H-benzoimidazol-2-ylmethyl}-amino)-ethanol]
30 | 0.13 nM | 170 nM | CCOCC1CCN(Cc2nc3cc(Oc4ccc(-c5ccn[nH]5)cc4)ccc3[nH]2)CC1 [Example 193, 2-(4-Ethoxymethyl-piperidin-1-ylmethyl)-5-[4-(2H-pyrazol-3-yl)-phenoxy]-1H-benzoimidazole]
